Test results reported in PMC9501014, “Amaryllidaceae-Type Alkaloids from Pancratium maritimum: Apoptosis-Inducing Effect and Cell Cycle Arrest on Triple-Negative Breast Cancer Cells” (Molecules, 2022).

What was measured:
Format in all cases: cell-based, human
MDA-MB-231 cells [1] = assay: Annexin V-FITC apoptosis assay; conditions: 16 µM, 48 h, vs vehicle control
Method: Figure 2 Compound 7 induced cell cycle arrest, apoptosis, and ROS production, in MDA-MB-231 cells. […] (B) Effect of 16 µM of compound 7 on cell cycle progression after 48 h of treatment in MDA-MB-231 cells; the percentage of cells in each phase of the cell cycle was analyzed by flow cytometry, using PI; data are mean ± SEM of three independent experiments. […] (C) Effect of 16 µM of compound 7 on apoptosis after 48 h of treatment; the percentage of Annexin-positive cells was analyzed by flow cytometry using PI and Annexin-V staining; data are mean ± SEM of three independent experiments. […] (D) Effect of 16 µM of compound 7 on mitochondrial ROS generation after 24 h of treatment; data are mean ± SEM of three independent experiments (* p < 0.05, unpaired Student’s t-test). […] (F) The graph represents the quantification of protein expression levels relative to DMSO; data are mean ± SD of three independent experiments. The ability of compound 7 to induce apoptosis in this cell line was also assessed by cytometry, using the Annexin V-FITC assay after 48 h of treatment. […]
(§1) The analyses were performed basically as described in [33]. […] The cells were then analyzed by flow cytometry, and cell cycle phases were identified and quantified using the FlowJo × 10.0.7 Software (Treestar, Ashland, OR, USA). […]

MDA-MB-231 cells [2] = assay: Combination therapy with etoposide (SRB, CompuSyn), MDA-MB-231
Method: (§2) The effect of 1.5 μM of compound 7 in combination with a range of concentrations of etoposide was evaluated after 48 h of treatment using CompuSyn software to calculate the combination index (CI) values for each combined treatment: CI < 1, synergy; 1 < CI < 1.1, additive effect; CI > 1.1, antagonism.
(§3) The effect of combined treatments on cell proliferation was analyzed by SRB assay. For each combination, the combination index (CI) values were calculated using the CompuSyn Software version 1.0; CI values < 1, 1 < CI < 1.1, and >1.1 indicate synergistic, additive, and antagonistic effects, respectively.

MDA-MB-231 cells [3] = assay: Cell cycle analysis by flow cytometry (PI); conditions: 16 µM (2 × IC50), vs vehicle control; 24 h / 48 h
Method: To explore the ability of compound 7 to regulate cell cycle progression, the percentage of cells in different phases was analyzed after 24 h of exposure.
Figure 2 Compound 7 induced cell cycle arrest, apoptosis, and ROS production, in MDA-MB-231 cells. […] (B) Effect of 16 µM of compound 7 on cell cycle progression after 48 h of treatment in MDA-MB-231 cells; the percentage of cells in each phase of the cell cycle was analyzed by flow cytometry, using PI; data are mean ± SEM of three independent experiments. […] (C) Effect of 16 µM of compound 7 on apoptosis after 48 h of treatment; the percentage of Annexin-positive cells was analyzed by flow cytometry using PI and Annexin-V staining; data are mean ± SEM of three independent experiments. […] (F) The graph represents the quantification of protein expression levels relative to DMSO; data are mean ± SD of three independent experiments. The ability of compound 7 to induce apoptosis in this cell line was also assessed by cytometry, using the Annexin V-FITC assay after 48 h of treatment. […]
as §1

MCF-7 cells = assay: Sulforhodamine B antiproliferative assay, MCF-7
Method: The antiproliferative effect of the isolated compounds (1–11) was investigated by the sulforhodamine B assay against human triple-negative breast cancer cell lines (MDA-MB-468 and MDA-MB-231) and breast ductal carcinoma cells (MCF-7) and the non-tumorigenic fibroblast (HFF-1) and breast cell lines (MCF12A). The IC50 values were determined after 48 h of treatment (Table 1).
Human breast adenocarcinoma MDA-MB-231, MDA-MB-468, and MCF-7 cell lines and non-tumorigenic foreskin fibroblast (HFF-1) and breast (MCF12A) cell lines were purchased from American Type Culture Collection (ATCC, Rockville, MD, USA). All cancer cell lines, except MCF12A, were routinely cultured in RPMI-1640 medium with glutamine from Corning (VWR, Carnaxide, Portugal) supplemented with 10% fetal bovine serum (FBS) from Biowest (Labclinics, Barcelona, Spain). MCF12A cells were cultured in a 1:1 mixture of Dulbecco’s modified Eagle’s medium and Ham’s F12 medium, 20 ng/mL human epidermal growth factor, 100 ng/mL cholera toxin, 0.01 mg/mL bovine insulin, and 500 ng/mL hydrocortisone and supplemented with 10% FBS. All cells were maintained in a humidified incubator at 37 °C with 5% CO2. All cells were routinely tested for mycoplasma contamination using the MycoAlertTM PLUS detection kit (Lonza, Basel, Switzerland).
Human cell lines were seeded in 96-well plates at a density of 5.0 × 10^3 (MDA-MB-231, MCF-7, HFF-1, and MCF12A) and 7.5 × 10^3 (MDA-MB-468) cells/well and allowed to adhere for 24 h. Cells were treated with serial dilutions of compounds (ranging from 0.1 to 40 μM) for an additional 48 h. Effect on cell proliferation was measured by sulforhodamine B assay, as described in [33], and the half-maximal inhibitory concentration (IC50) was then determined for each cell line using the GraphPad Prism software version 7.0 (La Jolla, CA, USA).

HFF-1 cells = assay: Combination therapy with etoposide (SRB, CompuSyn), HFF-1; conditions: for Combination Index HFF-1: 48 h
Method: as §2, §3

COc1cc2c(cc1O)C(=O)OC1[C@@H](O)C=C3CCN(C)C3[C@]21O (stereo partly drawn) [Compound 7, 2α-10bα-dihydroxy-9-O-demethylhomolycorine]
percentage of apoptotic (Annexin-positive) cells (MDA-MB-231 cells [1]): significant increase in the percentage of apoptotic cells
Combination Index MDA-MB-231 (MDA-MB-231 cells [2]; 1.5 µM compound 7 + etoposide 0.4 µM, 48 h): 1.23
Combination Index MDA-MB-231 (MDA-MB-231 cells [2]; 1.5 µM compound 7 + etoposide 0.8 µM, 48 h): 0.87
Combination Index MDA-MB-231 (MDA-MB-231 cells [2]; 1.5 µM compound 7 + etoposide 1.5 µM, 48 h): 0.81
Combination Index MDA-MB-231 (MDA-MB-231 cells [2]; 1.5 µM compound 7 + etoposide 3 µM, 48 h): 0.86
type of interaction with etoposide, MDA-MB-231 (MDA-MB-231 cells [2]; 1.5 µM compound 7, etoposide 0.8, 1.5 and 3 µM): synergistic effects
effect on growth inhibitory effect of etoposide (MDA-MB-231 cells [2]; 1.5 µM compound 7, etoposide 0.8, 1.5 and 3 µM, 48 h): significantly increased the growth inhibitory effect of etoposide
cell cycle progression (MDA-MB-231 cells [3]): significant accumulation of cells in the G2/M phase
IC50 (MCF-7 cells; Homo sapiens, MCF7, 48 h, sulforhodamine B assay, 48 h of treatment, read-out: IC50 MCF-7 (C)): 6.8 ± 0.2 µM
SI D/C (MCF-7 cells; selectivity index, MCF12A vs MCF-7): 0.82
Combination Index HFF-1 (HFF-1 cells; 1.5 µM compound 7 + etoposide 0.4 µM): 1.19
Combination Index HFF-1 (HFF-1 cells; 1.5 µM compound 7 + etoposide 0.8 µM): 1.34
Combination Index HFF-1 (HFF-1 cells; 1.5 µM compound 7 + etoposide 1.5 µM): 1.12
Combination Index HFF-1 (HFF-1 cells; 1.5 µM compound 7 + etoposide 3 µM): 1.09
type of interaction with etoposide, HFF-1 (HFF-1 cells; same experimental conditions as in MDA-MB-231 cells): no synergistic effects
